Results from patent publication US20140093499A1, “PHARMACEUTICAL COMBINATIONS COMPRISING DUAL ANGIOPOIETIN-2 / DLL4 BINDERS AND ANTI-VEGF AGENTS” (BOEHRINGER INGELHEIM INTERNATIONAL GMBH, priority 2012, published 2014).

What was measured:
[1] = test system: MAXF 401 mammary cancer xenograft; assay: MAXF 401 patient-derived tumor xenograft efficacy in nude mice; assay type: in vivo, human; details: BI-1 13.6 mg/kg twice weekly i.p., BIBF1120 50 mg/kg once daily p.o., Bevacizumab 15 mg/kg twice weekly i.p.
Source text: (§1) The goal of the present study was to assess the efficacy of BI-1 in combination with Bevacizumab, BIBF1120 or Sunitinib in models of human non small cell lung cancer (LXFE 211, LXFE 1422), colon cancer (CXF 243), mammary cancer (MAXF 401), ovarian cancer (OVXF 1353), pancreatic cancer (PAXF 546) and renal cancer (RXF 1220) in nude mice. All models were patient-derived tumor xenografts (PDX), which were transplanted from patients to nude mice and passaged subcutaneously. These models retain most of the characteristics of the parental patient tumors including histology.
(§2) Tumor fragments were obtained from tumor xenografts in serial passage in nude mice. After removal from donor mice, tumors were cut into fragments (4-5 mm diameter) and placed in PBS until subcutaneous implantation. Recipient mice were anesthetized by inhalation of isoflurane. […] Mice were monitored daily. […]
(§3) The doses of BI-1 and Bevacizumab were calculated to the average body weight of all mice on day 1 (28 g) and administered intraperitoneally twice weekly in a volume of 100 μl per mouse. […]
(§4) Tumor diameters were measured twice weekly with a caliper. The volume of each tumor [in mm^3] was calculated according to the formula “tumor volume=length*diameter^2*0.5.” To monitor side effects of treatment, mice were inspected daily for abnormalities and body weight was determined twice weekly. […]

[2] = Body weight and deaths in PDX tumor-bearing nude mice; details: mouse, in vivo
Protocol: Mice were 5-7 week-old female Crl:NMRI-Foxn1^nu purchased from Charles River, Sulzfeld, Germany. After arrival, mice were allowed to adjust to ambient conditions for at least 5 days before they were used for the experiments. They were housed in individual ventilated Makrolon® type II long cages under standardized conditions at 25±1° C. temperatures and 55±10% humidity. Standardized diet (Teklad Global 19% Protein Extruded Diet (T.20195.12) from Harlan Laboratories) and sterile filtrated and acidified (pH 2.5) tap water were provided ad libitum. Ear clips were used to identify each mouse. Cage cards showing the study number, the animal identification number, the compound and dose level, the administration route as well as the schedule remained with the animals throughout the study.
Tumor diameters were measured twice weekly with a caliper. The volume of each tumor [in mm^3] was calculated according to the formula “tumor volume=length*diameter^2*0.5.” To monitor side effects of treatment, mice were inspected daily for abnormalities and body weight was determined twice weekly. Animals with tumor sizes exceeding 1.5 cm in diameter or 20% body weight loss were euthanized for ethical reasons.

[3] = test system: OVXF 1353 ovarian cancer xenograft; assay: OVXF 1353 patient-derived tumor xenograft efficacy in nude mice; assay type: in vivo, human; details: BI-1 13.6 mg/kg twice weekly i.p., BIBF1120 50 mg/kg once daily p.o., Bevacizumab 15 mg/kg twice weekly i.p.
Source text: as §1, §2, §3, §4

[4] = test system: PAXF 546 pancreatic cancer xenograft; assay: PAXF 546 patient-derived tumor xenograft efficacy in nude mice; assay type: in vivo, human; details: BI-1 13.6 mg/kg twice weekly i.p., BIBF1120 50 mg/kg once daily p.o., Bevacizumab 15 mg/kg twice weekly i.p.
Source text: as §1, §2, §3, §4

[5] = test system: LXFE 211 non small cell lung cancer xenograft; assay: LXFE 211 patient-derived tumor xenograft efficacy in nude mice; assay type: in vivo, human; details: BI-1 13.6 mg/kg twice weekly i.p., BIBF1120 50 mg/kg once daily p.o., Bevacizumab 15 mg/kg twice weekly i.p.
Source text: as §1, §2, §3, §4

[6] = test system: CXF 243 colon cancer xenograft; assay: CXF 243 patient-derived tumor xenograft efficacy in nude mice; assay type: in vivo, human; details: BI-1 13.6 mg/kg twice weekly i.p., BIBF1120 50 mg/kg once daily p.o., Bevacizumab 15 mg/kg twice weekly i.p.
Source text: as §1, §2, §3, §4

[7] = test system: human non-small cell lung cancer (NCl-H1975) xenografts; assay: NCl-H1975 subcutaneous xenograft efficacy in nude mice; assay type: in vivo; details: NCl-H1975, day 1 to day 14; Bevacizumab 25 mg/kg twice weekly i.p., BIBF 1120 50 mg/kg daily p.o., BI-1 13.6 mg/kg twice weekly i.p.
Protocol: The goal of the present study was to assess the efficacy of BI-1 in combination with Bevacizumab and BIBF 1120 in a model of human non small cell lung cancer (NCl-H1975) in nude mice.
• Model: Subcutaneous xenografts of the human non-small cell lung cancer (NCl-H1975) growing in nude mice
To establish subcutaneous tumors, NCl-H1975 cells were harvested by centrifugation, washed and resuspended in PBS+5% FCS at 5×10^7 cells/ml. 100 μl cell suspension containing 5×10^6 cells was then injected subcutaneously into the right flank of the mice (1 site per mouse). Mice were randomly distributed between the treatment and the vehicle control group (7 days after cell injection) when tumors were well established and had reached volumes of 63 to 104 mm3.
The doses of BI-1 and Bevacizumab were calculated to the average body weight of all mice on day 1 (28 g) and administered intraperitoneally twice weekly in a volume of 100 μl per mouse. BIBF 1120 was dosed according to the body weight (mg/kg) and administered daily perorally.
Tumor diameters were measured three times a week (Monday, Wednesday and Friday) with a caliper. The volume of each tumor [in mm3] was calculated according to the formula “tumor volume=length*diameter2*π/6.” To monitor side effects of treatment, mice were inspected daily for abnormalities and body weight was determined three times a week (Monday, Wednesday and Friday). […]

[8] = test system: LXFE 1422 non small cell lung cancer xenograft; assay: LXFE 1422 patient-derived tumor xenograft efficacy in nude mice; assay type: in vivo, human; details: BI-1 13.6 mg/kg twice weekly i.p., BIBF1120 50 mg/kg once daily p.o., Bevacizumab 15 mg/kg twice weekly i.p.
Source text: as §1, §2, §3, §4

[9] = test system: RXF 1220 renal cancer xenograft; assay: RXF 1220 patient-derived tumor xenograft efficacy in nude mice; assay type: in vivo, human; details: BI-1 13.6 mg/kg twice weekly i.p., Sunitinib 40 mg/kg once daily, Bevacizumab 15 mg/kg twice weekly i.p.
Source text: as §1
Sunitinib (Sutent®, Pfizer) tablets were ground with mortar and pestle and 108.48 mg powder (corresponding to 32 mg API; correction factor: 3.39) were dissolved in PBS (pH 5).
Tumor fragments were obtained from tumor xenografts in serial passage in nude mice. […] Mice were monitored daily. […]
as §3, §4

| Compound | TGI [1] [%] | maximum median body weight loss [2] [%] | TGI [3] [%] | TGI [4] [%] | TGI [5] [%] | TGI [6] [%] | median TGI (tumor growth inhibition) [7] [%] | TGI [8] [%] | TGI [9] [%] |
| --- | --- | --- | --- | --- | --- | --- | --- | --- | --- |
| COC(=O)c1ccc2c(c1)NC(=O)/C2=C(\Nc1ccc(N(C)C(=O)CN2CCN(C)CC2)cc1)c1ccccc1 [BIBF 1120] | 63 | 5.9 | 78 | 69 | 40 | 65 | 75 | 57 | – |
| CCN(CC)CCNC(=O)c1c(C)[nH]c(/C=C2\C(=O)Nc3ccc(F)cc32)c1C [Sunitinib] | – | – | – | – | – | – | – | – | 62 |
| Bevacizumab | 68 | 9.1 | – | 59 | 37 | – | 82 | 63 | – |
